Literature values in patent US10398709B2, “Compositions for the treatment of cataracts” (Catacore, Inc., priority 2015, dated 2019).

Tests used:
[1] = test system: preformed protein aggregates (mutant crystallins); conditions: both in vitro and in cell-transfection experiments
[2] = test system: dissected rabbit cataractous lenses; conditions: dissected rabbit cataractous lenses in vitro
cataract = conditions: in vivo in dogs

| SMILES | preformed protein aggregates [1] | cataract severity and transparency [2] | cataract severity (cataract) |
| --- | --- | --- | --- |
| CC(C)CCC[C@@H](C)[C@H]1CC[C@H]2[C@@H]3CC=C4C[C@@H](O)CC[C@]4(C)[C@H]3CC[C@]12C [cholesterol] | not | – | – |
| CC(C)=CCC[C@@H](C)[C@H]1CC[C@@]2(C)C3=C(CC[C@]12C)[C@@]1(C)CC[C@H](O)C(C)(C)[C@@H]1CC3 [lanosterol, 3β-hydroxy-8,24-lanostadiene] | significantly decreased | reduce cataract severity and increase transparency | reduce cataract severity |
